Data: US20200009248A1, “TARGETING TGR5 TO TREAT DISEASE” (Mayo Foundation for Medical Education and Research, priority 2014, published 2020)
Entries after “also recorded” stand apart in the source; their conditions may differ.

Key:
[1] = tested on: control and cystic cholangiocytes; experiment: cAMP production (Bridge-It cAMP assay) in cholangiocytes treated with TGR5 agonists; type: cell-based, rat, human; settings: 25 μM, 30 minutes; for cAMP production: ciliated cystic cholangiocytes (PCK rat, human ADPKD)
Experimental: Production of cAMP was detected using a Bridge-It cAMP designer cAMP assay (Mediomics, St. Lou is, MO) according to manufacturer's protocol. […] Forskolin (10^−6M for 15 min) served as a control.

ADPKD cholangiocytes = experiment: Three-dimensional culture of cystic cholangiocytes, cyst growth; type: cell-based, human; settings: ADPKD cholangiocytes with TGR5 depleted by shRNA
Excerpt: Control and cystic rat cholangiocytes (derived from wild type and PCK rats, respectively), and control and cystic human cholangiocytes (derived from healthy humans and ADPKD patients, respectively) were used. Cells were isolated and maintained as described elsewhere (Masyuk et al., Hepatol 2013, 58:409-421). […] C1 and C2 were synthesized in the Sanford-Burnham Medical Research Institute at >95% purity by HPLC following a procedure outlined elsewhere (Piotrowski et al., ACS Med Chem Lett 2013, 4:63-68; and Evans et al., J Med Chem 2009, 52:7962-7965). PCK and ADPKD cholangiocytes were stably transfected with TGR5 shRNAs or control shRNAs (Santa Cruz Biotechnology, Santa Cruz, Calif.). Rodents were maintained on a standard diet and water ad lib. […]
Cultured cholangiocytes and cystic bile ducts freshly isolated by microdissection from PCK rats were grown in three-dimensional matrices as described elsewhere (Masyuk et al., Am J Pathol 2014, 184:110-121; and Masyuk et al., Am J Pathol 2004, 165:1719-1730) and treated with TLCA and OA (both, […]) daily. […] The circumferential area of each cyst was measured using ImageJ software (National Institutes of Health, Bethesda, Md.) as described elsewhere (Masyuk et al., Am J Pathol 2014, 184:110-121). Data were expressed as percent change at day 3 compared to day 1.

PCK rats = experiment: Hepato-renal cystogenesis in PCK rats treated with OA for 6 weeks; type: in vivo; settings: 25 mg/kg bw intraperitoneally daily; for hepato-renal cystogenesis: 25 mg/kg
Excerpt: (§1) Control PCK rats (n=8) received equal doses of DMSO. Drug concentrations were adjusted to the animal weight weekly. After 6 weeks of treatment, rats were sacrificed and body and organ weights assessed. […] Hepatic and renal cystic and fibrotic areas were expressed as a percentage of total hepatic or renal parenchyma, respectively.

[2] = tested on: Gαi and Gαs proteins, TGR5; settings: PCK rats in vivo, immunofluorescence
Excerpt: as §1

[3] = tested on: cystic bile ducts from PCK rats; experiment: Three-dimensional culture of cystic bile ducts, cyst growth; type: cell-based, rat; settings: 25 μm daily, day 3 vs day 1, compared to untreated
Experimental: Cultured cholangiocytes and cystic bile ducts freshly isolated by microdissection from PCK rats were grown in three-dimensional matrices as described elsewhere (Masyuk et al., Am J Pathol 2014, 184:110-121; and Masyuk et al., Am J Pathol 2004, 165:1719-1730) and treated with TLCA and OA (both, […]) daily. Images were taken at days 1 (i.e., 24 hours after seeding) and 3. The circumferential area of each cyst was measured using ImageJ software (National Institutes of Health, Bethesda, Md.) as described elsewhere (Masyuk et al., Am J Pathol 2014, 184:110-121). Data were expressed as percent change at day 3 compared to day 1.

Gαi and Gαs proteins = experiment: Western blot of Gαi and Gαs proteins in control and cystic cholangiocytes with or without OA; type: cell-based
Experimental: Western blotting. Briefly, proteins were separated by 4-15% SDSPAGE, transferred to nitrocellulose membranes (Bio-Rad, Hercules, Calif.), and incubated overnight at 4° C. with antibodies against TGR5 (Santa Cruz Biotechnology), Gas (Abcam, Cambridge, Mass.), and Gαi (Cell Signaling Technology, Danvers, Mass.). Actin antibody was used to assure equal protein loading. Membranes were washed and incubated for 1 hour at room temperature with the corresponding horseradish peroxidase-conjugated (Invitrogen) or IRDYE® 680 or 800 (Odyssey) secondary antibodies. Bands were visualized with the ECL Plus Western Blotting Detection kit (BD Biosciences, San Jose, Calif.) or Odyssey Li-Cor Scanner (Li-Cor, Lincoln, Nebr.).

[4] = ciliated control cholangiocytes (rat, human)
[5] = non-ciliated control and cystic cholangiocytes (rat, human)

SMILES	cAMP levels [1, 4]	cAMP production [1]	cAMP levels [1, 5]	growth of cystic structures in 3-D culture after TGR5 depletion (ADPKD cholangiocytes)	mortality or toxicity (e.g., hair or weight loss) (PCK rats)	tolerability (PCK rats)	increase of hepatic cystic areas (PCK rats; compared to control PCK rats) [%]	increase of hepatic fibrotic areas (PCK rats; compared to control PCK rats) [%]	increase of kidney weights (PCK rats; compared to control PCK rats) [%]	increase of liver weights (PCK rats; compared to control PCK rats) [%]	increase of renal cystic areas (PCK rats; compared to control PCK rats) [%]	increase of renal fibrotic areas (PCK rats; compared to control PCK rats) [%]	hepato-renal cystogenesis (PCK rats; listed as Oleanolic Acid)	hepato-renal cystogenesis (PCK rats; listed as oleanolic acid)	expression of Gα proteins [2]	growth of cystic structures (cyst expansion) in 3-D culture [3]	expression of Gαi and Gαs proteins (Gαi and Gαs proteins)
CC1(C)CC[C@]2(C(=O)O)CC[C@]3(C)C(=CC[C@@H]4[C@@]5(C)CC[C@H](O)C(C)(C)[C@@H]5CC[C@]43C)[C@@H]2C1 [OA, oleanolic acid]	decreased cAMP levels	increasing cAMP production	elevated cAMP	abolished the effects	no mortality or toxicity	well tolerated	31	20	11	12	19	30	Increases	increases	does not affect	accelerated cyst expansion	no effects; also recorded: did not affect
CCNc1nc2c(c(C(N)=O)n1)CN(C(=O)CCc1ccc(OC(F)(F)F)cc1)CC2 [C1, 2-(ethylamino)-6-(3-(4-(trifluoromethoxy)phenyl)propanoyl)-5,6,7,8-tetrahydropyrido[4,3-d]pyrimidine-4-carbox-amide]	decreased cAMP levels	increasing cAMP production	elevated cAMP	–	–	–	–	–	–	–	–	–	–	–	–	–	–
Cc1onc(-c2ccccc2Cl)c1C(=O)N(C)c1ccc(Cl)cc1 [C2, 3-(2-chlorophenyl)-N-(4-chlorophenyl)-N,5-dimethylisoxazole-4-carboxamide]	decreased cAMP levels	increasing cAMP production	elevated cAMP	–	–	–	–	–	–	–	–	–	–	–	–	–	–
